Patent US20250026745A1 (Bluejay Therapeutics, Inc., priority 2023, published 2025)

target: recombinant 17β-HSD13 protein (Homo sapiens (Human), UniProt Q7Z5P4); test: 17β-HSD13 biochemical assay (NAD+/NADH Glo chemiluminescence); settings: 17β-HSD13 50 nM, NAD+ 10 mM, β-estradiol 20 μM, 2 hours room temperature
Description: 17β-HSD13 biochemical assays are generically described in patents WO 2022/020730, WO 2021/003295, and WO 2023/023310. More specifically, recombinant 17β-HSD13 protein was assayed in a buffer containing 200 mM Tris pH 7.5, 0.01% Triton X-100, and 0.02% BSA into a 384-well assay plate. Compounds were incubated with 17β-HSD13 (final 50 nM) and NAD+ (final 10 mM) at room temperature for 1 h prior to substrate addition. The assay reaction was then initiated by addition of β-estradiol (final 20 μM), and the reaction mixture was incubated for 2 hours at room temperature. Product formation was detected with chemiluminescence by adding equal volume of NAD+/NADH Glo reagent (Promega, #G9062) and read on a PHERAstar microplate reader (BMG LABTECH). IC50 values were determined with GraphPad Prism®, where log-transformed concentration values and the inhibition data were fitted to a four-parameter logistic equation. Y=Bottom+(Top−Bottom)/(1+10^((Log IC50−X)*HillSlope)). The original, % control, or % inhibition data are represented by Y along with their minimal (Bottom) and maximal (Top) values. The inhibitor concentration is represented by X, IC50 is the concentration at 50% maximal value, and Hill Slope is the slope factor.

Chain of recombinant 17β-HSD13 protein (Q7Z5P4 20-300): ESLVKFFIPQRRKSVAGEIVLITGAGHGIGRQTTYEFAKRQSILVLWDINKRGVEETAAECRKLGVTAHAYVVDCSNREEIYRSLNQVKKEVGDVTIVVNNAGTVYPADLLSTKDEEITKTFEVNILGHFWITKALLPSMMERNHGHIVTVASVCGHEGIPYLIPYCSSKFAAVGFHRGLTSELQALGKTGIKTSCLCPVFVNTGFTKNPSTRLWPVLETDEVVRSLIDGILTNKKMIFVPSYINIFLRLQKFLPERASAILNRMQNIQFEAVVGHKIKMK

`O=C1N(Cc2ccc(F)cc2F)C(=O)C2(CC2)N1Cc1nnc(-c2ccc(F)c(O)c2Cl)s1` [Compound I-33, 4-((5-(2-chloro-4-fluoro-3-hydroxyphenyl)-1,3,4-thiadiazol-2-yl)methyl)-6-(2,4-difluorobenzyl)-4,6-diazaspiro[2.4]heptane-5,7-dione] was tested. Which IC50 did it give?
Its IC50 is 8.83 nM.

Which IC50 does the source give for `O=C1N(CC2(C(F)(F)F)CC2)C(=O)C2(CC2)N1Cc1nnc(-c2ccc(Cl)c(O)c2F)s1` [Compound I-25, 4-((5-(4-chloro-2-fluoro-3-hydroxyphenyl)-1,3,4-thiadiazol-2-yl)methyl)-6-((1-(trifluoromethyl)cyclopropyl)methyl)-4,6-diazaspiro[2.4]heptane-5,7-dione] here?
The IC50 was 146 nM.

How did the IC50 turn out when `O=C1N(C(c2ccc(F)cc2F)C(F)(F)F)C(=O)C2(CC2)N1Cc1nnc(-c2ccc(F)c(O)n2)s1` (stereo not drawn) [Compound I-89, 6-(1-(2,4-difluorophenyl)-2,2,2-trifluoroethyl)-4-((5-(5-fluoro-6-hydroxypyridin-2-yl)-1,3,4-thiadiazol-2-yl)methyl)-4,6-diazaspiro[2.4]heptane-5,7-dione] was run?
The IC50 was 15.6 nM.

`CC[C@H](C)N1C(=O)N(Cc2nnc(-c3ccc(F)c(O)n3)s2)C2(CC2)C1=O` [Compound I-78, (S)-6-(sec-butyl)-4-((5-(5-fluoro-6-hydroxypyridin-2-yl)-1,3,4-thiadiazol-2-yl)methyl)-4,6-diazaspiro[2.4]heptane-5,7-dione] was tested. Which IC50 did it give?
Its IC50 is 934 nM.

How did the IC50 turn out when `O=C1N(Cc2ccccc2)C(=O)C2(CC2)N1Cc1nnc(-c2ccc(F)c(O)n2)s1` [Compound I-74, 6-benzyl-4-((5-(5-fluoro-6-hydroxypyridin-2-yl)-1,3,4-thiadiazol-2-yl)methyl)-4,6-diazaspiro[2.4]heptane-5,7-dione] was run?
The IC50 was 147 nM.

Which IC50 does the source give for `O=C1N(CC(F)F)C(=O)C2(CC2)N1Cc1nnc(-c2ccc(F)c(O)c2F)s1` [Compound I-92, 4-((5-(2,4-difluoro-3-hydroxyphenyl)-1,3,4-thiadiazol-2-yl)methyl)-6-(2,2-difluoroethyl)-4,6-diazaspiro[2.4]heptane-5,7-dione] here?
The IC50 was 14.3 nM.

With `O=C1N(Cc2nnc(-c3ccc(F)c(O)n3)s2)C2(CC2)C(=O)N1C1(c2ccccc2)CC1` [Compound I-104, 4-((5-(5-fluoro-6-hydroxypyridin-2-yl)-1,3,4-thiadiazol-2-yl)methyl)-6-(1-phenylcyclopropyl)-4,6-diazaspiro[2.4]heptane-5,7-dione] as the compound, how does the IC50 read?
Its IC50 is 176 nM.

For `O=C(O)CN1C(=O)N(Cc2nnc(-c3ccc(F)c(O)c3Cl)s2)C2(CC2)C1=O` [Compound I-45, 2-(4-((5-(2-chloro-4-fluoro-3-hydroxyphenyl)-1,3,4-thiadiazol-2-yl)methyl)-5,7-dioxo-4,6-diazaspiro[2.4]heptan-6-yl)acetic acid], which IC50 is on record?
The IC50 was 1030 nM.

`O=C1N(Cc2ccccc2)C(=O)C2(CC2)N1Cc1nnc(-c2cc(C3CC3)c(F)c(O)c2F)s1` [Compound I-63, 6-benzyl-4-((5-(5-cyclopropyl-2,4-difluoro-3-hydroxyphenyl)-1,3,4-thiadiazol-2-yl)methyl)-4,6-diazaspiro[2.4]heptane-5,7-dione] was tested. Which IC50 did it give?
The IC50 was 18 nM.

For `O=C1N(CCC(F)(F)F)C(=O)C2(CC2)N1Cc1nnc(-c2ccc(F)c(O)c2F)s1` [Compound I-29, 4-((5-(2,4-difluoro-3-hydroxyphenyl)-1,3,4-thiadiazol-2-yl)methyl)-6-(3,3,3-trifluoropropyl)-4,6-diazaspiro[2.4]heptane-5,7-dione], which IC50 is on record?
The IC50 was 18.6 nM.

`C[C@@H](c1ccccc1)N1C(=O)N(Cc2nnc(-c3ccc(F)c(O)n3)s2)C2(CC2)C1=O` [Compound I-80, (S)-4-((5-(5-fluoro-6-hydroxypyridin-2-yl)-1,3,4-thiadiazol-2-yl)methyl)-6-(1-phenylethyl)-4,6-diazaspiro[2.4]heptane-5,7-dione] was tested. Which IC50 did it give?
Its IC50 is 76.8 nM.

How did the IC50 turn out when `O=C1N(Cc2ccccc2)C(=O)C2(CC2)N1Cc1nnc(-c2nc(C(F)(F)F)c(F)c(O)c2F)s1` [Compound I-59, 6-benzyl-4-((5-(3,5-difluoro-4-hydroxy-6-(trifluoromethyl)pyridin-2-yl)-1,3,4-thiadiazol-2-yl)methyl)-4,6-diazaspiro[2.4]heptane-5,7-dione] was run?
Its IC50 is 161 nM.

With `O=C1N(Cc2ncccn2)C(=O)C2(CC2)N1Cc1nnc(-c2ccc(F)c(O)c2F)s1` [Compound I-21, 4-((5-(2,4-difluoro-3-hydroxyphenyl)-1,3,4-thiadiazol-2-yl)methyl)-6-(pyrimidin-2-ylmethyl)-4,6-diazaspiro[2.4]heptane-5,7-dione] as the compound, how does the IC50 read?
Its IC50 is 620 nM.

For `CCN1C(=O)N(Cc2nnc(-c3cnc(Cl)c(O)c3)s2)C2(CC2)C1=O` [Compound I-12, 4-((5-(6-chloro-5-hydroxypyridin-3-yl)-1,3,4-thiadiazol-2-yl)methyl)-6-ethyl-4,6-diazaspiro[2.4]heptane-5,7-dione], which IC50 is on record?
Its IC50 is 323 nM.

How did the IC50 turn out when `N#Cc1ccccc1CN1C(=O)N(Cc2nnc(-c3ccc(F)c(O)c3Cl)s2)C2(CC2)C1=O` [Compound I-38, 2-((4-((5-(2-chloro-4-fluoro-3-hydroxyphenyl)-1,3,4-thiadiazol-2-yl)methyl)-5,7-dioxo-4,6-diazaspiro[2.4]heptan-6-yl)methyl)benzonitrile] was run?
Its IC50 is 39.4 nM.

`O=C1N(C2CC2)C(=O)C2(CC2)N1Cc1nnc(-c2ccc(F)c(O)c2F)s1` [Compound I-43, 6-cyclopropyl-4-((5-(2,4-difluoro-3-hydroxyphenyl)-1,3,4-thiadiazol-2-yl)methyl)-4,6-diazaspiro[2.4]heptane-5,7-dione] was tested. Which IC50 did it give?
The IC50 was 18.5 nM.

With `O=C1N([C@@H](c2ccccc2)C(F)(F)F)C(=O)C2(CC2)N1Cc1nnc(-c2ccc(F)c(O)n2)s1` [Compound I-88, (S)-4-((5-(5-fluoro-6-hydroxypyridin-2-yl)-1,3,4-thiadiazol-2-yl)methyl)-6-(2,2,2-trifluoro-1-phenylethyl)-4,6-diazaspiro[2.4]heptane-5,7-dione] as the compound, how does the IC50 read?
The IC50 was 29.1 nM.

With `CCN1C(=O)N(Cc2nnc(-c3ccc(F)c(O)n3)s2)C2(CC2)C1=O` [Compound I-75, 6-ethyl-4-((5-(5-fluoro-6-hydroxypyridin-2-yl)-1,3,4-thiadiazol-2-yl)methyl)-4,6-diazaspiro[2.4]heptane-5,7-dione] as the compound, how does the IC50 read?
The IC50 was 1360 nM.

`CCCCN1C(=O)N(Cc2nnc(-c3ccc(F)c(O)c3F)s2)C2(CC2)C1=O` [Compound I-28, 6-butyl-4-((5-(2,4-difluoro-3-hydroxyphenyl)-1,3,4-thiadiazol-2-yl)methyl)-4,6-diazaspiro[2.4]heptane-5,7-dione] was tested. Which IC50 did it give?
Its IC50 is 8.11 nM.

With `C[C@@H](CO)N1C(=O)N(Cc2nnc(-c3ccc(F)c(O)c3F)s2)C2(CC2)C1=O` [Compound I-47, (S)-4-((5-(2,4-difluoro-3-hydroxyphenyl)-1,3,4-thiadiazol-2-yl)methyl)-6-(1-hydroxypropan-2-yl)-4,6-diazaspiro[2.4]heptane-5,7-dione] as the compound, how does the IC50 read?
The IC50 was 53 nM.

`C[C@H](COCC(=O)O)N1C(=O)N(Cc2nnc(-c3ccc(F)c(O)c3F)s2)C2(CC2)C1=O` [Compound I-48] was tested. Which IC50 did it give?
Its IC50 is 1060 nM.

`O=C1N(Cc2nnc(-c3ccc(F)c(O)c3Cl)s2)C2(CC2)C(=O)N1C1(c2ccccc2)CC1` [Compound I-103, 4-((5-(2-chloro-4-fluoro-3-hydroxyphenyl)-1,3,4-thiadiazol-2-yl)methyl)-6-(1-phenylcyclopropyl)-4,6-diazaspiro[2.4]heptane-5,7-dione] was tested. Which IC50 did it give?
Its IC50 is 4.39 nM.

`CCN1C(=O)N(Cc2nnc(-c3cc(C(F)(F)F)cc(O)c3Cl)s2)C2(CC2)C1=O` [Compound I-13, 4-((5-(2-chloro-3-hydroxy-5-(trifluoromethyl)phenyl)-1,3,4-thiadiazol-2-yl)methyl)-6-ethyl-4,6-diazaspiro[2.4]heptane-5,7-dione] was tested. Which IC50 did it give?
The IC50 was 13.8 ± 2.2 nM.

Which IC50 does the source give for `C[C@@H](COCC(=O)O)N1C(=O)N(Cc2nnc(-c3ccc(F)c(O)c3F)s2)C2(CC2)C1=O` [Compound I-49] here?
The IC50 was 426 nM.

With `C[C@H](c1ccccc1)N1C(=O)N(Cc2nnc(-c3ccc(F)c(O)n3)s2)C2(CC2)C1=O` [Compound I-79, (R)-4-((5-(5-fluoro-6-hydroxypyridin-2-yl)-1,3,4-thiadiazol-2-yl)methyl)-6-(1-phenylethyl)-4,6-diazaspiro[2.4]heptane-5,7-dione] as the compound, how does the IC50 read?
The IC50 was 122 nM.

Which IC50 does the source give for `O=C1N(CC(F)(F)F)C(=O)C2(CC2)N1Cc1nnc(-c2cc(C(F)(F)F)cc(O)c2F)s1` [Compound I-39, 4-((5-(2-fluoro-3-hydroxy-5-(trifluoromethyl)phenyl)-1,3,4-thiadiazol-2-yl)methyl)-6-(2,2,2-trifluoroethyl)-4,6-diazaspiro[2.4]heptane-5,7-dione] here?
Its IC50 is 8.45 nM.

With `CNC(=O)c1ccc(CN2C(=O)N(Cc3nnc(-c4ccc(F)c(O)c4F)s3)C3(CC3)C2=O)cc1` [Compound I-93, 4-((4-((5-(2,4-difluoro-3-hydroxyphenyl)-1,3,4-thiadiazol-2-yl)methyl)-5,7-dioxo-4,6-diazaspiro[2.4]heptan-6-yl)methyl)-N-methylbenzamide] as the compound, how does the IC50 read?
Its IC50 is 75.4 nM.
